From patent US9365584B2, “Thieno [2,3-B] pyridinedione activators of AMPK and therapeutic uses thereof” (Poxel, priority 2009, dated 2016)

System: ob/ob and db/db mice
Assay: not given
Details: 8 day AICAR administration; cited from earlier work

Structure (SMILES) | reduces blood glucose
NC(=O)c1ncn([C@@H]2O[C@H](CO)[C@@H](O)[C@H]2O)c1N [AICAR] | 35%

System: AMPK
Assay: AMPK enzyme activity assay (Delfia technology, AMARA peptide substrate)
Assay type: biochemical
Details: compound at 30 μM vs AMP at 200 μM
Outline: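 Value is the ratio of compound (30 μM) to AMP (200 μM) response, each as % of basal control. Phosphorylation of the AMARA peptide after AMPK addition was read by Delfia with an anti-phosphoserine antibody.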

Activity: Ratio between the % of control (basal activity) of compound of formula (1) at 30 μM and the % of control (basal activity) of AMP (natural substrate) at 200 μM | Structure (SMILES)
C (C≧75%) | Cc1ccc(-c2c(Cl)sc3c2C(=O)C(F)(c2cccc(C#N)c2)C(=O)N3)cc1C (centres unmarked) [No 217, 3-[2-chloro-3-(3,4-dimethylphenyl)-5-fluoro-4,6-dioxo-7H-thieno[2,3-b]pyridin-5-yl]benzonitrile]
C (C≧75%) | CS(=O)(=O)c1ccc(C2(F)C(=O)Nc3sc(Cl)c(-c4ccc(F)cc4O)c3C2=O)cc1 (centres unmarked) [No 218, 2-chloro-5-fluoro-3-(4-fluoro-2-hydroxy-phenyl)-5-(4-methylsulfonylphenyl)-7H-thieno[2,3-b]pyridine-4,6-dione]
C (C≧75%) | COc1ccc(C2(F)C(=O)Nc3sc(Cl)c(-c4ccc(F)cc4O)c3C2=O)cc1OC (centres unmarked) [No 219, 2-chloro-5-(3,4-dimethoxyphenyl)-5-fluoro-3-(4-fluoro-2-hydroxy-phenyl)-7H-thieno[2,3-b]pyridine-4,6-dione]
B (50%≦B<75%) | Cc1sc2c(c1-c1ccc(F)cc1O)C(=O)C(F)(c1ccccc1)C(=O)N2 (centres unmarked) [No 220, 5-fluoro-3-(4-fluoro-2-hydroxy-phenyl)-2-methyl-5-phenyl-7H-thieno[2,3-b]pyridine-4,6-dione]
C (C≧75%) | O=C1Nc2sc(Cl)c(-c3ccccc3)c2C(=O)C1(Cl)c1ccccc1 (centres unmarked) [No 222, 2,5-dichloro-3,5-diphenyl-7H-thieno[2,3-b]pyridine-4,6-dione]
C (C≧75%) | CCc1ccc(-c2c(Cl)sc3c2C(=O)C(F)(c2ccccc2)C(=O)N3)c(O)c1 (centres unmarked) [No 223, 2-chloro-3-(4-ethyl-2-hydroxy-phenyl)-5-fluoro-5-phenyl-7H-thieno[2,3-b]pyridine-4,6-dione]
C (C≧75%) | N#Cc1cccc(C2(F)C(=O)Nc3sc(Cl)c(-c4ccc(F)cc4O)c3C2=O)c1 (centres unmarked) [No 224, 3-[2-chloro-5-fluoro-3-(4-fluoro-2-hydroxy-phenyl)-4,6-dioxo-7H-thieno[2,3-b]pyridin-5-yl]benzonitrile]
C (C≧75%) | COc1ccc(C2(F)C(=O)Nc3sc(Cl)c(-c4ccc(F)cc4O)c3C2=O)cc1C (centres unmarked) [No 225, 2-chloro-5-fluoro-3-(4-fluoro-2-hydroxy-phenyl)-5-(4-methoxy-3-methyl-phenyl)-7H-thieno[2,3-b]pyridine-4,6-dione]
C (C≧75%) | O=C1Nc2sc(Cl)c(-c3ccc(F)cc3O)c2C(=O)C1(F)c1ccsc1 (centres unmarked) [No 226, 2-chloro-5-fluoro-3-(4-fluoro-2-hydroxy-phenyl)-5-(3-thienyl)-7H-thieno[2,3-b]pyridine-4,6-dione]
B (50%≦B<75%) | COc1c(-c2c(Cl)sc3c2C(=O)C(F)(c2ccc(F)cc2)C(=O)N3)ccc(C)c1F (centres unmarked) [No 227, 2-chloro-5-fluoro-3-(3-fluoro-2-methoxy-4-methyl-phenyl)-5-(4-fluorophenyl)-7H-thieno[2,3-b]pyridine-4,6-dione]
C (C≧75%) | Cc1ccc(-c2c(Cl)sc3c2C(=O)C(F)(c2ccc(F)cc2)C(=O)N3)c(O)c1F (centres unmarked) [No 228, 2-chloro-5-fluoro-3-(3-fluoro-2-hydroxy-4-methyl-phenyl)-5-(4-fluorophenyl)-7H-thieno[2,3-b]pyridine-4,6-dione]
A (0%<A<50%) | COc1c(-c2c(Cl)sc3c2C(=O)C(F)(c2ccccc2)C(=O)N3)ccc(F)c1C (centres unmarked) [No 229, 2-chloro-5-fluoro-3-(4-fluoro-2-methoxy-3-methyl-phenyl)-5-phenyl-7H-thieno[2,3-b]pyridine-4,6-dione]
A (0%<A<50%) | COc1c(-c2c(Cl)sc3c2C(=O)C(F)(c2ccccc2)C(=O)N3)ccc(C)c1F (centres unmarked) [No 230, 2-chloro-5-fluoro-3-(3-fluoro-2-methoxy-4-methyl-phenyl)-5-phenyl-7H-thieno[2,3-b]pyridine-4,6-dione]
C (C≧75%) | COC1(c2ccccc2)C(=O)Nc2sc(Cl)c(-c3ccc(F)cc3O)c2C1=O (centres unmarked) [No 231, 2-chloro-3-(4-fluoro-2-hydroxy-phenyl)-5-methoxy-5-phenyl-7H-thieno[2,3-b]pyridine-4,6-dione]
C (C≧75%) | Cc1ccc(-c2c(Cl)sc3c2C(=O)C(Cl)(c2ccccc2)C(=O)N3)c(O)c1F (centres unmarked) [No 232, 2,5-dichloro-3-(3-fluoro-2-hydroxy-4-methyl-phenyl)-5-phenyl-7H-thieno[2,3-b]pyridine-4,6-dione]
C (C≧75%) | Cc1c(F)ccc(-c2c(Cl)sc3c2C(=O)C(Cl)(c2ccccc2)C(=O)N3)c1O (centres unmarked) [No 233, 2,5-dichloro-3-(4-fluoro-2-hydroxy-3-methyl-phenyl)-5-phenyl-7H-thieno[2,3-b]pyridine-4,6-dione]
